The record followed here is PubChem BioAssay (NCI).

Values joined by “and” are separate entries in the source; they are usually repeats but may differ in a detail not shown here. Equal values may be shown once.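 Method: 48-hour compound exposure of cells in 96-well plates, five concentrations, linear interpolation of endpoints. GI50 marks 50% less growth. TGI marks complete inhibition of growth.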

Among the test systems are M14 melanoma; SF-268 CNS; OVCAR-4 ovarian; COLO 205 colon; MCF7 breast; K-562 leukemia; HCC-2998 colon; MALME-3M melanoma; UO-31 renal; ACHN renal.
What all share (test): growth of human tumour cells (NCI), 48 h

As for `CN(CCC(=O)/C(=C\c1ccccc1)c1ccc(Cl)cc1)Cc1ccccc1`, the GI50 in the test on M14 melanoma was 2.7 µM; in the test with SF-268 CNS, 2.76 µM; with OVCAR-4 ovarian, 3.15 µM; in the test on COLO 205 colon, 2.75 µM; with MCF7 breast, 2.06 µM; in the test with K-562 leukemia, 2.16 µM. In addition, the GI50 in the test on HCC-2998 colon was 3.54 µM; with MALME-3M melanoma, 3.23 µM; in the test with UO-31 renal, 1.74 µM; in the test with ACHN renal, 2.25 µM. The TGI with M14 melanoma turned out to be 7.99 µM; with SF-268 CNS it was 10 µM; with OVCAR-4 ovarian it was 12.7 µM; in the test on COLO 205 colon, 7.24 µM; in the test with MCF7 breast, 16.5 µM; in the test on K-562 leukemia it was 13.1 µM. Also, the TGI in the test with HCC-2998 colon stood at 9.77 µM; in the test with MALME-3M melanoma, 11.8 µM; in the test on UO-31 renal, 3.63 µM; in the test on ACHN renal, 5.46 µM.

For `Cc1nc2ccccc2nc1N=Nc1ccccc1`, the GI50 in the test with M14 melanoma was 17.7 µM; with SF-268 CNS, 22.7 µM; in the test with OVCAR-4 ovarian, 16.5 µM; with COLO 205 colon, 0.291 µM; in the test on MCF7 breast, 5.75 µM; with K-562 leukemia, 25.7 µM. Also, the GI50 was 37 µM with HCC-2998 colon, 20.8 µM with MALME-3M melanoma, 7.99 µM in the test on UO-31 renal and 16.9 µM with ACHN renal. Also, the TGI in the test with M14 melanoma is 44.8 µM; in the test with SF-268 CNS, greater than 100 µM; in the test with OVCAR-4 ovarian, greater than 100 µM; in the test with COLO 205 colon it was 1.91 µM; in the test with MCF7 breast it was greater than 100 µM; with K-562 leukemia, greater than 100 µM. For the same compound, the TGI in the test with HCC-2998 colon was greater than 100 µM; with MALME-3M melanoma, 65.7 µM; in the test on UO-31 renal it was greater than 100 µM; in the test with ACHN renal it was greater than 100 µM.

For `COCCOCCOCc1n(Cc2ccc3ccccc3n2)c2ccccc2[n+]1Cc1ccc2ccccc2n1`, the GI50 is 1.56 µM in the test with M14 melanoma; 0.903 µM with SF-268 CNS; 0.373 µM in the test with OVCAR-4 ovarian; 0.284 µM with COLO 205 colon; 0.369 µM in the test on MCF7 breast; 0.421 µM in the test on K-562 leukemia. Also, the GI50 is 0.912 µM in the test with HCC-2998 colon, 0.658 µM with MALME-3M melanoma, 12.1 µM with UO-31 renal and 13.7 µM with ACHN renal. Also, the TGI in the test with M14 melanoma came to 12.8 µM; in the test on SF-268 CNS, 16.2 µM; in the test on OVCAR-4 ovarian, 13.3 µM; in the test with COLO 205 colon, 1.5 µM; with MCF7 breast it was 11.1 µM; with K-562 leukemia, 13.2 µM. Further, the TGI amounted to 14.4 µM with HCC-2998 colon, 8.67 µM with MALME-3M melanoma, 36.2 µM in the test on UO-31 renal and 81.7 µM with ACHN renal.

Consider `COC1CC(N)C(O)C(C)O1` (configuration not stated), for which the TGI in the test on M14 melanoma, with SF-268 CNS, in the test with OVCAR-4 ovarian, in the test with COLO 205 colon, in the test with MCF7 breast and in the test with K-562 leukemia was greater than 100 µM in each case. Besides, the TGI in the test with HCC-2998 colon, in the test with MALME-3M melanoma, with UO-31 renal and with ACHN renal was greater than 100 µM throughout.

In the case of `CC1OC(CC(=O)O)CC2=C1C(=O)c1c(O)cccc1C2=O` (configuration not stated), the TGI in the test on M14 melanoma was 0.389 µM; in the test with SF-268 CNS, 1.33 µM; in the test on OVCAR-4 ovarian it was 0.742 µM; in the test with COLO 205 colon, 0.169 µM; with MCF7 breast it was 0.368 µM; in the test with K-562 leukemia it was 0.36 µM. The TGI in the test with HCC-2998 colon is 1.69 µM; with MALME-3M melanoma, 0.495 µM; with UO-31 renal, 1.07 µM; in the test on ACHN renal, 0.658 µM.

`N#CC(C#N)=C/C=C(\Sc1ccc(F)cc1Cl)c1ccc(Cl)cc1`: the GI50 was 0.433 µM in the test on M14 melanoma; 0.457 µM with SF-268 CNS; 4.97 µM with OVCAR-4 ovarian; 0.515 µM in the test with COLO 205 colon; 0.417 µM in the test on MCF7 breast; 0.432 µM in the test on K-562 leukemia. The GI50 with HCC-2998 colon is 2.3 µM; in the test on MALME-3M melanoma it was 0.406 µM; in the test on UO-31 renal, 1.78 µM; in the test on ACHN renal, 0.883 µM. Moreover, the TGI in the test with M14 melanoma is 2.03 µM; in the test with SF-268 CNS, 1.9 µM; with OVCAR-4 ovarian, greater than 64.2 µM; with COLO 205 colon it was 5.02 µM; with MCF7 breast it was 2.55 µM; in the test on K-562 leukemia, greater than 100 µM. Besides, the TGI in the test with HCC-2998 colon is 4.54 µM; in the test on MALME-3M melanoma it was 1.72 µM; in the test with UO-31 renal it was greater than 40.3 µM; with ACHN renal, 2.14 µM.

Take `CCCCNc1ccc(Nc2ccccc2)cc1`: the GI50 in the test on M14 melanoma is 6.3 µM; in the test on SF-268 CNS, 13.3 µM; with OVCAR-4 ovarian, 4.35 µM; in the test with COLO 205 colon, 2.77 µM; in the test with MCF7 breast, 3.74 µM; in the test with K-562 leukemia it was 2.45 µM. Further, the GI50 is 5.73 µM in the test on HCC-2998 colon, 3.8 µM in the test with MALME-3M melanoma, 14.4 µM with UO-31 renal and 16.7 µM with ACHN renal. In addition, the TGI is 31.3 µM in the test on M14 melanoma; greater than 100 µM in the test with SF-268 CNS; greater than 100 µM in the test with OVCAR-4 ovarian; 11.7 µM in the test with COLO 205 colon; 28 µM with MCF7 breast; 12 µM in the test on K-562 leukemia. Further, the TGI in the test with HCC-2998 colon is greater than 100 µM; in the test on MALME-3M melanoma, 28.8 µM; with UO-31 renal, 43.1 µM; in the test on ACHN renal, greater than 100 µM.

Consider `COc1ccc2c(c1)-c1nn(CCCN(C)C)c3ccc([N+](=O)[O-])c(c13)N2`, for which the TGI in the test with M14 melanoma is 4.7 µM and 7 µM; in the test with SF-268 CNS it was 6.12 µM and 6.94 µM; in the test with OVCAR-4 ovarian, 1.18 µM and 2 µM; with COLO 205 colon, 0.913 µM and 3.75 µM; in the test with MCF7 breast, 2.7 µM and 10.9 µM; in the test with K-562 leukemia, 5.57 µM and 12.1 µM. Besides, the TGI in the test with HCC-2998 colon is 1.73 µM and 12.2 µM; in the test on MALME-3M melanoma, 2.9 µM and 7.68 µM; in the test with UO-31 renal, 1.9 µM and 6.16 µM; in the test with ACHN renal, 1.25 µM and 3.69 µM. The GI50 in the test with OVCAR-4 ovarian was 0.234 µM and 0.649 µM; in the test on COLO 205 colon it was 0.0962 µM and 0.276 µM; in the test with K-562 leukemia it was 0.145 µM and 0.338 µM; with HCC-2998 colon, 0.148 µM and 0.728 µM; in the test on MALME-3M melanoma, 0.306 µM and 0.908 µM; in the test with UO-31 renal, 0.165 µM and 0.435 µM. In addition, the GI50 in the test with ACHN renal is 0.102 µM and 0.26 µM.
